Consider two compounds from publication PMC3865801 (Journal of Medicinal Chemistry, 2013).

Data set [1] is described as follows: Toxicity to KHYG-1 NK cells (Trypan blue exclusion). The data set is classed as cell-based, human. To be noted: human, viability after 24 h; for viability at 4 h, 20 µM: 4 h exposure, Trypan blue, ± SEM. Here is the method:
(§1) The toxicity assay was carried out in exactly the same manner as the killing assay above, but instead of adding the labeled K562 target cells, 100 μL of RPMI 0.1% BSA was added. Cells were incubated for 4 h at 37 °C and then washed ×3 in RPMI + 0.1% BSA. […] Trypan blue was added to each well. Viable (clear) cells and total (clear + blue) cells were counted, and the percentage of viable cells was calculated compared to DMSO treated cell control (% viability).

Data set [2] concerns the target T1, recombinant purified mouse perforin (Mus musculus, UniProt P10820).
T1 sequence (P10820 21-554): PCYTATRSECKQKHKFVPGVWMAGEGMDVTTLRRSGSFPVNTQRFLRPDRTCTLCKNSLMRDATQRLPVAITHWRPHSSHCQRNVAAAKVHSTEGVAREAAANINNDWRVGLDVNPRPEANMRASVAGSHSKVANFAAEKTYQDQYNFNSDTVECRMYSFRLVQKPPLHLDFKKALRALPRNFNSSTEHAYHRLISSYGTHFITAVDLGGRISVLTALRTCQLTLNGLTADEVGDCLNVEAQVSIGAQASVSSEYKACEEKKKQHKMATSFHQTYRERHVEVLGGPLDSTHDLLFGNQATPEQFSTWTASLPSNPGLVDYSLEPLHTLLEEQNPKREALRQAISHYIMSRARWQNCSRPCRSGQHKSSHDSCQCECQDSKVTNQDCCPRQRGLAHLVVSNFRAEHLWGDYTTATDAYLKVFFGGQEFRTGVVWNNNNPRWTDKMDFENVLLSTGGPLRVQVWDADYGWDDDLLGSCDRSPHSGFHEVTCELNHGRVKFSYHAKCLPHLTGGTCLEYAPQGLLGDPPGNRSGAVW
The data set can be described thus: Inhibitor binding to immobilized perforin by SPR (Biacore T200). To be noted: for Kd: single site specific binding model, read-out: calculated KD; for binding to immobilized perforin by SPR: analyte ≤2.5 μM, 5% DMSO running buffer. An excerpt: While several series of potent inhibitors have now been identified,[23]−[26] little is known about the mechanism by which the cytolytic activity of perforin action is blocked. In order to find out more about the nature and degree of inhibitor binding, recombinant purified mouse perforin was immobilized on a surface plasmon resonance (SPR) S-series CM5 sensor chip using standard amide coupling methodology.
Binding experiments with surface immobilized wild-type perforin monomers on a S-series CM5 sensor chip (GE Healthcare Life Sciences) were carried out using a Biacore T200 SPR machine (GE Healthcare Life Sciences). Perforin monomer solution (25 μg/mL in 10 mM sodium acetate, pH 5.5) was injected over the sensor chip surface under standard amide coupling conditions to obtain covalent binding of the protein (density = 4257 RU). The initial and running buffers were made from a 10× stock solution of HEPES buffered saline (HBS). 10× HBS (50 mL) was diluted to 500 mL with water and filtered through a 0.22 μm filter (initial buffer). This initial buffer (380 mL) was added to DMSO (20 mL) to prepare the 5% DMSO running buffer. Stock solutions (2.5 mM) of compound were prepared in 100% DMSO. These solutions were diluted in HEPES initial buffer to 5% DMSO (125 μM) and then subsequently diluted to the required concentrations using HEPES running buffer containing 5% DMSO to maintain a constant DMSO concentration. A solvent correction was run before and after the injections to account for differences in DMSO concentrations between buffer and analyte solutions.

Another data set relates to KHYG-1 NK cells. The data set can be described thus: Toxicity to KHYG-1 NK cells (Trypan blue exclusion). The data set is classed as cell-based, human. To be noted: 5 μM, viability after 24 h. As for the experimental part: as §1
Data set [3] concerns the target T2, perforin delivered by primary human natural killer cells to HeLa cells (Homo sapiens, UniProt P14222).
T2 construct: degranulation and the release of perforin into the synaptic cleft; endogenous in cells; host or cells: primary human NK cells from peripheral blood of four donors (HeLa target cells)
T2 sequence (P14222 22-555): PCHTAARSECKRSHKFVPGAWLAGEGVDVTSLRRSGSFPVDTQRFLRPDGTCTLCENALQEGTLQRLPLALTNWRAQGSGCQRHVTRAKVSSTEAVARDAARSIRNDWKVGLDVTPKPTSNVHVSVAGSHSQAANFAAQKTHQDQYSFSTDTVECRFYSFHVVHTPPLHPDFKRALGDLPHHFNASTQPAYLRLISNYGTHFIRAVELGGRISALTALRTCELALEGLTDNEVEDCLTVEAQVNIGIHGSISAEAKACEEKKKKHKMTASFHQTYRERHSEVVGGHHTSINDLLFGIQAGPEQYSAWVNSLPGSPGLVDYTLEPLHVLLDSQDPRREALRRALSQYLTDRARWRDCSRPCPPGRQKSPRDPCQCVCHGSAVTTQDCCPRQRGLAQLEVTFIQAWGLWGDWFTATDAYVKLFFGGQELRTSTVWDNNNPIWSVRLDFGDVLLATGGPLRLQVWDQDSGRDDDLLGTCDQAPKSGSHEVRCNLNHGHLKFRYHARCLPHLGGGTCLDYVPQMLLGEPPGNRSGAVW
The experiment in a line: Time-lapse microscopy of the cytotoxic immunological synapse (primary NK cells and HeLa targets). It is filed as cell-based. To be noted: 20 μM, primary human NK cells, HeLa targets. As for the experimental part: Time-lapse microscopy and image analysis were performed as described previously.[42] In brief, primary human natural killer cells were isolated from the peripheral blood of four unrelated donors using negative selection, as described in the above reference. […] All experiments were performed at 37 °C/5% CO2.

The mark [4] stands for this setting: SI Figure 2: 0, 0.25, 1.25 and 2.5 µM.
Where [5] appears, read: SI Figure 3: further dilution series 0–2.5 µM.

Molecules are shown by their SMILES. Entries after “also recorded” stand apart in the source; their conditions may differ. Where two headings read alike, the source gives them in different places.

By viability is commonly meant the share of living cells, or the viability signal relative to a control. Low values mean a greater loss of cells, high ones better survival. One may read the Kd as the concentration at which binding is half-saturated.

In turn, `CC1c2cc(-c3ccc(/C=C4/NC(=S)NC4=O)s3)ccc2C(=O)N1C` (stereo not drawn) [compound 135, (E,Z)-2,3-Dimethyl-5-(5-((5-oxo-2-thioxoimidazolidin-4-ylidene)methyl)thiophen-2-yl)isoindolin-1-one] displayed a viability at 4 h, 20 µM in data set [1] (KHYG-1 NK cells) of 74 ± 8.3%. Besides, the “calculated Rmax” value in data set [2] (setting [4]) is reported as 1.23 ± 0.10 RU; in data set [2] (setting [5]), 8.66 ± 2.81 RU. Further, the Kd was 1.79 ± 0.55 µM in data set [2] (setting [4]) and 2.39 ± 1.23 µM in data set [2] (setting [5]). Further, the “binding to immobilized perforin by SPR” value in data set [2] is listed as “saturable binding; also recorded: bind reversibly”.

With `O=C1NC(=S)N/C1=C/c1ccc(-c2ccc3c(c2)CCNC3=O)s1` [compound 167], the viability at 4 h, 5 µM in data set [1] (KHYG-1 NK cells, 5 μM) stood at 82 ± 3.6%. In addition, the viability at 4 h, 20 µM in data set [1] came out at 38 ± 7.8%. The KHYG-1 viability entry with KHYG-1 NK cells is “lack of NK toxicity”. The “binding to immobilized perforin by SPR” value in data set [2] is “linear concentration response; also recorded: bind reversibly”. Besides, in data set [3], the “synapses in which formation of the perforin pore was blocked” value was found to be 40%. Moreover, the “killer cells that delivered functional perforin to the target” value in data set [3] (DMSO control: every cell) stood at 60%.
